Article PMC12397098, “3-Monothiopomalidomide, a new immunomodulatory imide drug (IMiD), blunts inflammation and mitigates ischemic stroke in the rat” (GeroScience, 2025)
Read-outs that look alike come from different tables or passages of the source.

Legend:
[1] = system: LPS-induced cytokines (TNF-α, IL-6, IL-10, IL-13) in plasma and cerebral cortex; assay: Systemic and brain LPS anti-inflammatory study in rats; type: in vivo; conditions: rat, 4 h
Procedure: They were administered, via the intraperitoneal (I.P.) route, nano-formulated 3-MP at a dose of 13.25 or 26.5 mg/kg (equimolar to a clinically translatable dose of 12.5 and 25 mg/kg thalidomide), vehicle or pomalidomide (25 mg/kg). One hour later, animals were administered either LPS (1 mg/kg, E.Coli 055:B5, Sigma Aldrich, in normal saline, 0.5 mg/mL) or an alike volume of saline (without LPS) via the I.P. route. The LPS dose was selected from prior pilot studies to provide a substantial but sub-maximal rise in plasma proinflammatory cytokine levels, in line with our prior research. The selected 3-MP and pomalidomide doses were chosen as they are equimolar to, or are less than, doses of thalidomide and analogues that have been verified to be well tolerated in our previous studies and are of translational relevance to humans. Four hours after LPS administration, the animals were euthanized, and blood and brain tissues were collected and placed on wet ice. Plasma was quickly separated from blood by centrifugation (10,000 × g, 5 min, 4 °C) and together with the brain samples (cerebral cortex) was stored at − 80 °C. At a later time, cerebral cortex samples were sonicated in a TRIS-based lysis buffer (Mesoscale Discovery) with 3 × protease/phosphatase inhibitors (Halt™ Protease and Phosphatase Inhibitor Cocktail, Thermo Fisher Scientific, Waltham, MA, USA). Samples were then centrifuged (10,000 × g, 5 min, 4 °C), supernatant separated, and protein concentrations were quantified by bicinchoninic acid assay (BCA, Thermo Fisher Scientific). Rat plasma and cerebral cortex samples were analyzed by multi-proinflammatory cytokine ELISA (V-PLEX Proinflammatory Panel 2 Rat Kit, Mesoscale Discovery) following the manufacturer’s protocol to quantify TNF-α, IL-6, IL-10, and IL-13 levels.

[2] = system: TNF-α in LPS-challenged human PBMCs; assay: TNF-α in media of LPS-challenged human PBMCs; type: cell-based; conditions: 10 ng/ml LPS, 24 h, 3-MP 0 to 30 μM, vs LPS alone
Procedure: Human peripheral blood mononuclear cells (PBMCs), purchased from ATCC (Cat no. PCS-800–011, Lot no. 81215231, Manassas, VA, USA), were washed with ice-cold HBSS (ATCC 30–2213) containing 10% fetal bovine serum (FBS: ATCC 30–2020) and used for the experiment directly. The washed cells were suspended and maintained in RPMI media supplemented with 10% FBS, penicillin 100 U/mL, and streptomycin 100 µg/mL at 37 °C and 5% CO2. Approximately 5 × 10^5 cells were seeded into 24-well plates and allowed to equilibrate for 2 h. Pomalidomide or 3-MP, dissolved in 100% tissue culture grade dimethylsulfoxide (DMSO: Sigma Aldrich, St Louis, MO, USA), was then added to the wells. The final concentrations of drugs were 0.0, 0.6, 1.0, 10, 30, and 60 µM (n = 3–4 for each group). At 1 h after initiation of treatment, the cells were challenged with lipopolysaccharide (LPS, Sigma Aldrich, E.Coli 055:B5, Cat no. L4005-100MG, Lot no. 0000218759, Endotoxin Unit: 500,000 EU/mg, at a concentration of 10 ng/mL), and the media was collected after a further 24 h for evaluation of lactate dehydrogenase (LDH) activity as a marker of drug-induced cellular toxicity and concentrations of nitrite (In Vitro Toxicology Assay Kit, Lactic Dehydrogenase based, Promega, Cat no. G7891, Madison, WI, USA) (Griess Reagent System, Promega, Cat no. G2930) and TNF-α (human TNF-α ELISA MAX™ Deluxe Set Cat no. […]

[3] = Pharmacokinetics in the rat, I.V. and P.O.; type: in vivo
Procedure: To evaluate the metabolism of 3-MP, ex vivo plasma and liver homogenate studies were performed across species (rat and human), and in vivo pharmacokinetic studies were performed in rats following intravenous (I.V.) and oral (P.O.) administration of 3-MP (5 mg/kg) to time-dependently follow its disappearance from the plasma compartment.
Fig. 5 3-MP pharmacokinetics. 3-MP was administered to rats via the intravenous (I.V.) and oral (P.O.) routes, and time-dependent plasma levels were obtained and subjected to LC–MS/MS analysis (n = 3/group). Pharmacokinetic profile of 3-MP following a 5 mg/kg dose by either the I.V. or P.O route. Time-dependent plasma concentrations of 3-MP (n = 3/group)

[4] = human, 1 μM
[5] = 13.25 and 26.5 mg/kg I.P. 1 h before LPS 1 mg/kg I.P.
[6] = iv, rat plasma, I.V. bolus 5 mg/kg

## Nc1cccc2c1C(=S)N(C1CCC(=O)NC1=O)C2=O (stereo not drawn) [3-MP, 3-Monothiopomalidomide]
[1]; 3-MP both doses I.P., LPS 1 mg/kg
  LPS-mediated reduction in plasma IL-13: abated
[1]; 3-MP both doses and pomalidomide I.P., LPS 1 mg/kg
  LPS-mediated elevations in brain IL-13: maintained
[1]; 3-MP low dose 13.25 mg/kg I.P., pomalidomide 25 mg/kg I.P., LPS 1 mg/kg
  decline in IL-6 brain levels: failed to achieve statistical significance
[1]; [5]
  LPS-induced rise in plasma IL-6: reduced
  LPS-induced rise in plasma TNF-α: reduced
[1]; high- or low-dose 3-MP or pomalidomide I.P., LPS 1 mg/kg
  IL-10 elevation induced by LPS in plasma or brain: not lessened
[2]
  TNF-α levels in media: dose-dependently reduced
[3]; [6]
  AUC(0-inf): 15200 ng·h/mL
  AUC(0-t): 15100 ng·h/mL
  C0: 8150 ng/mL
[3]; plasma, iv, rat, I.V. bolus 5 mg/kg
  clearance: 5.65 mL/min/kg
[3]; plasma, iv, rat, I.V. bolus 5 mg/kg, read-out: Vdss
  Vd: 0.693 L/kg
[3]; po, rat plasma, P.O. 5 mg/kg
  AUC(0-inf): 5860 ng·h/mL
  AUC(0-t): 5560 ng·h/mL
  Cmax: 1020 ng/mL
[3]; rat plasma, P.O. 5 mg/kg, 5 mg/kg
  T1/2: 3.21 h
[3]; rat, plasma, iv, 5 mg/kg, rat plasma, I.V. bolus 5 mg/kg
  half-life: 1.56 h
[3]; rat, plasma, oral, 5 mg/kg, rat, P.O. vs I.V., 5 mg/kg
  bioavailability: ~38.5%
[3]; rat, plasma, po, 5 mg/kg, rat plasma, P.O. 5 mg/kg
  half-life: 3.2 h
[3]; rat, plasma, po, 5 mg/kg, rat plasma, P.O. 5 mg/kg, read-out: Tmax
  Tmax: 1.67 h
[3]; rat, plasma, po, 5 mg/kg, rat, oral gavage 5 mg/kg, read-out: time of peak concentration in plasma (converted)
  Tmax: 1.67 h
[4]; 60 min
  reduction of 3-MP levels following 60-min incubation: 8.2%
[4]; microsomes, 1 h
  Remaining (NCF = 60 min): 115.3%
  Remaining (T = 60 min): 91.8%
